Target: HPK1 (Homo sapiens (Human), UniProt Q92918)
Assay: HPK1 Lantha binding assay ("Lanth")
Settings: binding assays; Morrison Ki fit
In short: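 Ki values are from Morrison-equation fitting of 665/615 nm TR-FRET signals, taking enzyme level, tracer level and tracer Kd into account. The assay mix held HPK1 (2 nM), Eu-anti-GST antibody (2 nM) and Tracer222 (15 nM). Incubations were two 1 h steps at 23 °C, on 5-fold serial compound dilutions.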

Chain of HPK1 (Q92918 1-346 limits assumed): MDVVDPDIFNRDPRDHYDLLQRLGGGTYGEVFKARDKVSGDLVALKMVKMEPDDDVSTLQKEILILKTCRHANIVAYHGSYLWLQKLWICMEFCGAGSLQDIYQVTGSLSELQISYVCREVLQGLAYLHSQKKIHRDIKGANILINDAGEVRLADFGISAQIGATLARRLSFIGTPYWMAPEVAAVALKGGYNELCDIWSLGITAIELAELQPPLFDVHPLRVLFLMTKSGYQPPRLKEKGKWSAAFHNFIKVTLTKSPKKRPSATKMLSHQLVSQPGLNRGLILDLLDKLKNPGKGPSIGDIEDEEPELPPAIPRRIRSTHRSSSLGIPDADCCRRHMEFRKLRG

| SMILES | Ki [nM] |
| --- | --- |
| CN(CC(C)(C)O)C(=O)c1c(N)ccc(-c2cnc3c(c2)C2(CC2)CN3)c1F [Compound 29, 6-amino-3-(1′,2′-dihydrospiro[cyclopropane-1,3′-pyrrolo[2,3-b]pyridin]-5′-yl)-2-fluoro-N-(2-hydroxy-2-methylpropyl)-N-methylbenzamide] | 30 |
| Cc1c(-c2ccc(N)c(C(=O)N(C)C)c2F)cnc2c1C1(CC1)CN2 [Compound 30, 6-Amino-2-fluoro-N,N-dimethyl-3-(4′-methyl-1′,2′-dihydrospiro[cyclopropane-1,3′-pyrrolo[2,3-b]pyridin]-5′-yl)benzamide] | 53.9 |
| COc1c(-c2ccc(N)c(C(=O)N(C)C)c2F)cnc2c1C1(CC1)CN2 [Compound 31, 6-Amino-2-fluoro-3-(4′-methoxy-1′,2′-dihydrospiro[cyclopropane-1,3′-pyrrolo[2,3-b]pyridin]-5′-yl)-N,N-dimethylbenzamide] | 28.6 |
| Nc1ccc(-c2cnc3c(c2Cl)C2(CC2)CN3)cc1C(=O)N1C2CCC1CC2 [Compound 32, (2-Amino-5-(4′-chloro-1′,2′-dihydrospiro[cyclopropane-1,3′-pyrrolo[2,3-b]pyridin]-5′-yl)phenyl)(7-azabicyclo[2.2.1]heptan-7-yl)methanone] | 12.8 |
| Nc1cc(-c2cnc3c(c2Cl)C2(CC2)CN3)cc(-c2ncccc2CO)c1 [Compound 34, (2-(3-Amino-5-(4′-chloro-1′,2′-dihydrospiro[cyclopropane-1,3′-pyrrolo[2,3-b]pyridin]-5′-yl)phenyl)pyridin-3-yl)methanol] | 6.15 |
| CN(CCO)C(=O)c1c(N)ccc(-c2cnc3c(c2Cl)C2(CC2)CN3)c1F [Compound 36, 6-Amino-3-(4′-chloro-1′,2′-dihydrospiro[cyclopropane-1,3′-pyrrolo[2,3-b]pyridin]-5′-yl)-2-fluoro-N-(2-hydroxyethyl)-N-methylbenzamide] | 4.7 |
| CN(C)C(=O)c1c(N)ccc(-c2cnc3c(c2Cl)C2(CCC2)CN3)c1F [Compound 37, 6-Amino-3-(4′-chloro-1′,2′-dihydrospiro[cyclobutane-1,3′-pyrrolo[2,3-b]pyridin]-5′-yl)-2-fluoro-N,N-dimethylbenzamide] | 2.2 |
| CN(C)C(=O)c1c(N)ccc(-c2cnc3c(c2Cl)[C@]2(CC[C@@H](O)C2)CN3)c1F [Compound 38a] | 24.2 |
| CN(C)C(=O)c1c(N)ccc(-c2cnc3c(c2Cl)[C@]2(CC[C@H](O)C2)CN3)c1F [Compound 38c, 6-Amino-3-((1R,3S)-4′-chloro-3-hydoxy-1′,2′-dihydrospiro[cyclopentane-1,3′-pyrrolo[2,3-b]pyridin]5′-yl)-2-fluoro-N,N-dimethylbenzamide] | 8.47 |
| CN(C)C(=O)c1c(N)ccc(-c2cnc3c(c2Cl)C2(CN3)CC2CO)c1F (stereo not shown) [Compound 39, 6-Amino-3-(4′-chloro-2-(hydroxymethyl)-1′,2′-dihydrospiro[cyclopropane-1,3′-pyrrolo[2,3-b]pyridin]-5′-yl)-2-fluoro-N,N-dimethylbenzamide] | 17.2 |
| CN(C)C(=O)c1c(N)ccc(-c2cnc3c(c2Cl)[C@@]2(CN3)C[C@H]2CO)c1F [Compound 39a, 6-Amino-3-((1R,2R)-4′-chloro-2-(hydroxymethyl)-1′,2′-dihydrospiro[cyclopropane-1,3′-pyrrolo[2,3-b]pyridin]-5′-yl)-2-fluoro-N,N-dimethylbenzamide] | 27.7 |
| CN(C)C(=O)c1c(N)ccc(-c2cnc3c(c2Cl)[C@]2(CN3)C[C@@H]2CO)c1F [Compound 39b, 6-Amino-3-((1S,2S)-4′-chloro-2-(hydroxymethyl)-1′,2′-dihydrospiro[cyclopropane-1,3′-pyrrolo[2,3-b]pyridin]-5′-yl)-2-fluoro-N,N-dimethylbenzamide] | 40.5 |
| CN(C)C(=O)c1c(N)ccc(-c2cnc3c(c2Cl)C2(CN3)Cc3ccncc3C2)c1F (stereo not shown) [Compound 40, 6-Amino-3-(4′-chloro-1′,2′,5,7-tetrahydrospiro[cyclopenta[c]pyridine-6,3′-pyrrolo[2,3-b]pyridin]-5′-yl)-2-fluoro-N,N-dimethylbenzamide] | 15.3 |
